The target in data set [1] is T1, proteinase K (Parengyodontium album, UniProt P06873).
T1 construct: purchased Sigma
As to conditions: peptide sequence alone; cited from earlier work. From the text: This article reports the synthesis of a new class of conjugates containing a nucleobase, a peptidic epitope, and a saccharide and the evalution of their gelation, biostability, and cell compatibility. […] All the conjugates themselves (1–8) display excellent solubility in water without forming hydrogels. However, a mixture of 5 and 8 self-assembles to form nanofibers and results in a supramolecular hydrogel. The pr ...

The target of data set [2] is T1, proteinase K. As to the kind of experiment: biostability: incubation with proteinase K. The data set is classed as in vitro ADME. As to conditions: 24 h, 37 °C. On the procedure: The existence of proteolytic enzymes in organism limits the applications of peptide-based biomaterials in vivo. […] When we changed the peptide sequence to EPTV, only 15% of 3 left.
Figure 3 Compounds remained after incubating with proteinase K (3.2 U/mL) for 24 h at 37 °C. (A) Each conjugate 1–8 is at the concentration of 0.2 mg/mL in HEPES buffer (pH 7.4). (B) Mixture of 1 + 8, 5 + 8, or 7 + 8 is in PBS buffer ([1] = [5] = [8] = 8.3 mM, pH 6.2). TEXT PRINTED IN THE PICTURE: (A) 4: Comp. remained %: Un-detectable | (A) 8: Comp. remained %: Un-detectable | (B) 8: Comp. remained %: Un-detectable (Mixtures: 7+8)
Starting materials and reagents were purchased from GL Biochem (Shanghai) Ltd. and Fisher Scientific without further purification unless otherwise noted. Proteinase K was purchased from Sigma (>800 unit/mL). The HeLa cell line (CCL-2) and the PC12 (CRL-1721.1) cell line were purchased from the American Type Culture Collection. All of the media were purchased from Invitrogen.

Data on 3 compounds can be found in PMC4578436, “Synthesis and evaluation of the biostability and cell compatibility of novel conjugates of nucleobase, peptidic epitope, and saccharide” (Beilstein Journal of Organic Chemistry, 2015).

Where a SMILES comes first, the peptide text is derived from it. The star is where a group is joined. Adenin9ylacetyl = Nc1ncnc2c1ncn2CC(=O)*

T1 sequence (P06873 106-384): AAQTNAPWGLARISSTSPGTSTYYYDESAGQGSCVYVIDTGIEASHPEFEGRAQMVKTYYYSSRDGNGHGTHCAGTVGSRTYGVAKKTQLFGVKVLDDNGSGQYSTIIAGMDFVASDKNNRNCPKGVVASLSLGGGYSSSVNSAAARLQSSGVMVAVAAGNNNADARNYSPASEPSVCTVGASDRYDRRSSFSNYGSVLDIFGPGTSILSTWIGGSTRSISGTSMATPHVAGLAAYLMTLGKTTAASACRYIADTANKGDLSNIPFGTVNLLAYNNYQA

As for TTPV, the “proteolytic stability of the peptidic epitope itself” value on proteinase K [1] is given as “proteolytic resistant”. On to `CC[C@H](C)[C@H](NC(=O)[C@H](CC(N)=O)NC(=O)[C@H](Cc1ccccc1)NC(=O)CNC(=O)[C@H](CC(C)C)NC(=O)Cn1cnc2c(N)ncnc21)C(=O)O` [compound 8] (Adenin9ylacetyl-LGFNI-OH), for which the “8 remained after incubating the mixture 1 + 8 with proteinase K” value at proteinase K [2] (mixture 1 + 8, each 8.3 mM in PBS buffer pH 6.2, proteinase K 3.2 U/mL) is listed as “about 3%”. The “8 remained after incubating the mixture 5 + 8 (hydrogel) with proteinase K” value on proteinase K [2] (mixture 5 + 8, each 8.3 mM in PBS buffer pH 6.2, proteinase K 3.2 U/mL) is given as “about 50%”. The “8 remained after incubating the mixture 7 + 8 with proteinase K” value on proteinase K [2] (mixture 7 + 8 in PBS buffer pH 6.2, same condition as 5 + 8, proteinase K 3.2 U/mL) was “Un-detectable”.

Take LGFNI: the “proteolytic stability of the peptidic epitope itself” value at proteinase K [1] is recorded as “susceptible to proteolysis”.
